The record followed here is patent publication US12358910B2, “Heteroaromatic compounds as Vanin inhibitors” (Boehringer Ingelheim International GmbH, priority 2018, dated 2025).

For test [1], the system named is Pantetheinase (vanin). Description: Human Whole Blood assay (vanin activity by pantothenic acid formation). The class given is cell-based. Particulars: pantethine substrate, 5 min reaction at room temperature, geometric mean in case of multiple measurements, read-out: HWB IC50. On the procedure:
Human Whole Blood assay: Pantetheinase (vanin) converts panteheine into pantothenic acid and cysteamine. Accordingly, in the described protocol vanin activity is quantified by formation of pantothenic acid after pantetheine supplementation via pantethine. The assay is applicable to identify vanin inhibitors. Compound stocks are dissolved in DMSO at 10 mM. Further dilutions are performed in RPMI 1640 medium (Gibco, #A-10491-01) and final concentrations in the assay are 0.032 nM-500 nM.
Human blood is drawn into a blood bag (1% heparin, 50 I.E./mL). Blood is aliquoted into cavities of 96-deep-well plates at 290 μL and mixed with 10 μL compound solution or vehicle (30 sec at 1400 rpm on a shaker). Equilibration follows at room temperature, 250 rpm and for 30 min. The assay is started by adding 10 μL of substrate solution (2 μM pantethine in 1 mM DTT, 0.0025% Brij-35, 50 mM HEPES, pH7.5) to each well, except for some blank wells which receive […] substrate buffer (1 mM DTT, 0.0025% Brij-35, 50 mM HEPES, pH7.5) only. Samples are thoroughly shaken (30 sec, 1400 rpm) and reaction is allowed to take place at room temperature, 250 rpm and for 5 min. The reaction is stopped by addition of a vanin tool inhibitor in excess (BI-1 total conc. 10 μM). Centrifugation of the plate follows at 4° C., 665 G for 10 min. Then the blood plasma samples (100 μL) are transferred into another 96-deep-well plate and proteins are precipitated (5 min on ice) by adding 100 μL of ice cold precipitation solution (1 μM labelled pantothenic acid (di-β-alanine-13C6,15N2 calcium salt, Sigma, #705837) in acetonitrile).
Afterwards the plate is centrifuged (4° C., 3220 G, 10 min) and supernatants (50 μL) are collected into another 96-deep-well plate and mixed (10 sec, 1400 rpm) with 150 μL ice cold formic acid (0.1%, Carl Roth GmbH+Co.KG, #CP03.1). The formation of pantothenic acid is detected by RapidFire Mass Spectrometry. A TripleQuad 6500+(ABSciex, Germany) is equipped with an LC-1290 system, a RapidFire autosampler (Agilent, Germany) and a C18 cartridge Type C 12 μL (Agilent Cat #G9526-80000). Mobile phase A is consisting of 0.09% formic acid and 0.01% trifluoroacetic acid in water and mobile phase B of 0.09% formic acid and 0.01% trifluoroacetic acid in acetonitrile/methanol/water=47.5/47.5/5.

Test [2] deals with T1, FLAG-tagged Vanin-1 (AA 22-493, T26I) (Homo sapiens, UniProt O95497, T26I).
T1 construct: FLAG-tagged Vanin-1 (AA 22-493, T26I, produced internally); FLAG; made in house
T1 sequence (O95497 22-493 T26I): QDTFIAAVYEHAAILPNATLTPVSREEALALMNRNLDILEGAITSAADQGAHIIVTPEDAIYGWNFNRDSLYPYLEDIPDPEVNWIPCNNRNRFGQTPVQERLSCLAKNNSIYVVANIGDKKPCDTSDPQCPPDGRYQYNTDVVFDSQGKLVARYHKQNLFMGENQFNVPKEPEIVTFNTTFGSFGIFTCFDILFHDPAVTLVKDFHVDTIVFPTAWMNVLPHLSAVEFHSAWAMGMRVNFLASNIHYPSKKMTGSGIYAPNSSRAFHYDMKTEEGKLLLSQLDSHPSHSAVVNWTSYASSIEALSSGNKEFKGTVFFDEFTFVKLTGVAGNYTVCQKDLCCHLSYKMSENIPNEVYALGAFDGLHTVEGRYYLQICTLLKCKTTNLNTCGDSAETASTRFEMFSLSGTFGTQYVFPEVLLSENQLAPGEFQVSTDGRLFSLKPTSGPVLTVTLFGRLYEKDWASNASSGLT
The test can be described thus: Vanin-1 enzymatic assay (pantothenic acid formation, RapidFire mass spectrometry). In kind it is biochemical. Particulars: 0.1 nM FLAG-tagged Vanin-1, 3 μM D-pantethine, room temperature; geometric mean in case of multiple measurements; read-out: VNN-1 IC50. The protocol:
Description of Biological Properties Vanin-1 Enzymatic Assay:
The test compounds are dissolved in 100% DMSO at a concentration of 10 mM and in a first step diluted in DMSO to a concentration of 5 mM, followed by serial dilution steps in 100% DMSO. Dilution factor and number of dilution steps may vary according to needs. Typically 8 different concentrations by 1:5 dilutions are prepared, a further intermediate dilutions of the substances is carried out with assay buffer resulting in 1% final DMSO concentration in the assay.
0.1 nM of FLAG-tagged Vanin-1 (AA 22-493, T26I, produced internally) and test compounds are incubated at room temperature for 20 minutes in assay buffer (1 mM DTT, 0.0025% Brij-35, 50 mM HEPES, pH7.5). D-Pantethine (Sigma, Cat #P2125-5G) in assay buffer is added (final concentration 3 μM) and incubated for additional 30 minutes at room temperature. Total assay volume typically is 40 μl but might be adjusted according to needs. Reaction is stopped by adding equal volume of stop solution as the reaction mixture to reach 100 nM HD-pantothenic acid (as an internal standard) and 1% TFA. Assay plates are centrifuged for 2 minutes and the formation of pantothenic acid is detected by RapidFire Mass Spectrometry (mobile phase A: 0.1% formic acid and 0.01% trifluoroacetic acid in water; mobile phase B: 47.5% acetonitrile, 47.5% methanol, 0.1% formic acid and 0.01% trifluoroacetic acid in water) using a C18, 12 μL cartridge (Agilent Cat #G9205A).
The values given in Table I result from measurements of one or more samples. In case of multiple measurements the geometric mean values are given.

One may read the IC50 as the concentration that inhibits the measured activity by half. Regarding `CN(C(=O)C1(C#N)CC1)[C@H]1CCN(C(=O)c2ccc(NCc3cnc4ccccn34)nc2)C1` [Example 1.13], the results for the IC50 in test [1] and in test [2] were 3.03 nM and 0.15 nM, respectively.

Take `CN(C(=O)C1(C)CCC1)[C@H]1CCN(C(=O)c2ccc(NCc3cnc4ccccn34)nc2)C1` [Example 1.14]: the concentration for half-maximal inhibition (IC50) stood at 2.59 nM in test [1] and 0.18 nM in test [2].

Regarding `O=C(c1ccc(NCc2cnc3ccccn23)nc1)N1CC[C@H](N2CCCC2=O)C1` [Example 1.15], the figures for the IC50 in test [1] and in test [2] were 4.82 nM and 0.19 nM, respectively.

In the case of `CN(C(=O)C1CC1)[C@H]1CCN(C(=O)c2ccc(NCc3cnc4ccccn34)nc2)C1` [Example 1.16], the IC50 in test [1] was 2.78 nM; in test [2], 0.2 nM.

As to `CC1(C#N)CCN(C(=O)c2ccc(NCc3ncn4ccccc34)nc2)C1` (centres unmarked) [Example 1.17], the IC50 was determined as 10.4 nM in test [1] and 0.83 nM in test [2].

In the case of `CC1(C#N)CCN(C(=O)c2ccc(NCc3cnc4ccccn34)nc2)C1` (centres unmarked) [Example 1.18], the concentration for half-maximal inhibition (IC50) amounted to 3.67 nM in test [1] and 0.41 nM in test [2].

With `CC1(C#N)CCN(C(=O)c2ccc(NCc3ccnc4[nH]ccc34)nc2)C1` (centres unmarked) [Example 1.19], the IC50 in test [1] stood at 3.78 nM; in test [2] it was 0.3 nM.

For `CC(=O)N(C)[C@H]1CCN(C(=O)c2ccc(NCc3n[nH]c4ccc(Cl)cc34)nc2)C1` [Example 2.1, N-[1(3S)-1-(6-{1[(5-Chloro-1H-indazol-3-yl)methyl]amino}pyridine-3-carbonyl)pyrrolidin-3-yl]-N-methylacetamide], the figures for the IC50 in test [1] and in test [2] were 5.03 nM and 0.23 nM, respectively.

As for `CC(=O)N(C)[C@H]1CCN(C(=O)c2ccc(NCc3cnc4ccsc4c3)nc2)C1` [Example 2.4], the half-inhibitory concentration (IC50) was found to be 1.39 nM in test [1] and 0.29 nM in test [2].

`CC(=O)N(C)[C@H]1CCN(C(=O)c2ccc(NCc3csc4ccccc34)nc2)C1` [Example 3.1, N-[(3S)-1-(6-{1[(1-Benzothiophen-3-yl)methyl]amino}pyridine-3-carbonyl)pyrrolidin-3-yl]-N-methylacetamide]: the IC50 in test [1] was 7.21 nM; in test [2], 0.41 nM.

As for `CN(C(=O)C1CCC1)[C@H]1CCN(C(=O)c2ccc(NCc3cnc4ccccn34)nc2)C1` [Example 4.1, N-[(3S)-1-{6-[({Imidazo[1,2-a]pyridin-3-yl}methyl)amino]pyridine-3-carbonyl}pyrrolidin-3-yl]-N-methylcyclobutanecarboxamide], the IC50 came to 1.63 nM in test [1] and 0.1 nM in test [2].

`CC(=O)N(C)[C@H]1CCN(C(=O)c2ccc(NCc3cncc4ccsc34)nc2)C1` [Example 5.1, N-Methyl-N-[(3S)-1-{6-[({thieno[3,2-c]pyridin-7-yl}methyl)amino]pyridine-3-carbonyl}pyrrolidin-3-yl]acetamide]: the IC50 was determined as 1.17 nM in test [1] and 0.04 nM in test [2].

In the case of `CC(=O)N(C)[C@H]1CCN(C(=O)c2ccc(N[C@@H](C)c3cccc4c3cnn4C)nc2)C1` [Example 5.2], the IC50 in test [1] worked out at 1.68 nM; in test [2], 0.07 nM.

As to `CC(=O)N(C)[C@H]1CCN(C(=O)c2ccc(NCc3cccc4[nH]ncc34)nc2)C1` [Example 5.3], the results for the IC50 in test [1] and in test [2] were 11.2 nM and 0.09 nM, respectively.

For `CC(=O)N(C)[C@H]1CCN(C(=O)c2ccc(NCc3c(Cl)nc4sccn34)nc2)C1` [Example 5.4], the half-maximal inhibitory concentration (IC50) is 1.59 nM in test [1] and 0.12 nM in test [2].

`CC(=O)N(C)[C@H]1CCN(C(=O)c2ccc(NCc3cccc4[nH]ccc34)nc2)C1` [Example 5.6]: the values for the half-inhibitory concentration (IC50) in test [1] and in test [2] were 2.1 nM and 0.13 nM, respectively.

With `CC(=O)N(C)[C@H]1CCN(C(=O)c2ccc(NCc3ccc4nc[nH]c4c3)nc2)C1` [Example 5.7], the figures for the concentration for half-maximal inhibition (IC50) in test [1] and in test [2] were 4.49 nM and 0.14 nM, respectively.

`CC(=O)N(C)[C@H]1CCN(C(=O)c2ccc(N[C@@H](C)c3ccc4[nH]ncc4c3)nc2)C1` [Example 5.8]: the IC50 in test [1] worked out at 1.71 nM; in test [2], 0.16 nM.

Regarding `CC(=O)N(C)[C@H]1CCN(C(=O)c2ccc(N[C@@H](C)c3cnc4[nH]ccc4c3)nc2)C1` [Example 5.9], the IC50 in test [1] was found to be 10.3 nM; in test [2] it was 0.18 nM.

Consider `CC(=O)N(C)[C@H]1CCN(C(=O)c2ccc(NC(C)c3cccc4[nH]ccc34)nc2)C1` (some centres unmarked) [Example 5.10], for which the half-inhibitory concentration (IC50) in test [1] was found to be 1.41 nM; in test [2], 0.18 nM.

Take `CC(=O)N(C)[C@H]1CCN(C(=O)c2ccc(NCc3cnc4ccccn34)nc2)C1` [Example 5.12]: the IC50 in test [1] was determined as 3.91 nM; in test [2], 0.23 nM.

For the molecule `CC(=O)N(C)[C@H]1CCN(C(=O)c2ccc(NCc3ccnc4[nH]ccc34)nc2)C1` [Example 5.13], the figures for the IC50 in test [1] and in test [2] were 1.71 nM and 0.28 nM, respectively.

On to `CC(=O)N(C)[C@H]1CCN(C(=O)c2ccc(NCc3n[nH]c4ccccc34)nc2)C1` [Example 5.14], for which the values for the IC50 in test [1] and in test [2] were 1.69 nM and 0.36 nM, respectively.

Take `CC(=O)N(C)[C@H]1CCN(C(=O)c2ccc(N[C@@H](C)c3nc4cc(Cl)ccc4[nH]3)nc2)C1` [Example 5.15]: the IC50 stood at 7.52 nM in test [1] and 0.6 nM in test [2].

On to `CC(=O)N(C)[C@H]1CCN(C(=O)c2ccc(NCc3c[nH]c4ccccc34)nc2)C1` [Example 5.16], for which the IC50 in test [1] turned out to be 4.39 nM; in test [2], 0.62 nM.

As to `CC(=O)N(C)[C@H]1CCN(C(=O)c2ccc(NCc3ncn4ccccc34)nc2)C1` [Example 5.19], the IC50 in test [1] came out at 3.69 nM; in test [2], 0.75 nM.

`CC(=O)N(C)[C@H]1CCN(C(=O)c2ccc(NCc3noc4c3CCCC4)nc2)C1` [Example 5.21]: the IC50 in test [1] was 3.4 nM; in test [2] it was 0.79 nM.

Regarding `CC(=O)N(C)[C@H]1CCN(C(=O)c2ccc(NCc3ccc4[nH]ncc4c3)nc2)C1` [Example 5.22], the IC50 in test [1] is 3.35 nM; in test [2], 0.82 nM.

For the molecule `CC(=O)N(C)[C@H]1CCN(C(=O)c2ccc(N[C@@H](C)c3nc4ccccc4[nH]3)nc2)C1` [Example 5.23], the IC50 in test [1] amounted to 4.1 nM; in test [2] it was 1.43 nM.

`CC(=O)N(C)[C@H]1CCN(C(=O)c2ccc(NCc3cccc4ncccc34)nc2)C1` [Example 5.24]: the IC50 in test [1] was found to be 3.88 nM; in test [2], 1.23 nM.

As for `CC(=O)N(C)[C@H]1CCN(C(=O)c2ccc(N[C@@H](C)c3ccc4nc[nH]c4c3)nc2)C1` [Example 5.36], the half-maximal inhibitory concentration (IC50) in test [1] was determined as 4.86 nM; in test [2], 0.22 nM.
